# Reference: article PMC9950073, “Alleviation of arthritis through prevention of neutrophil extracellular traps by an orally available inhibitor of protein arginine deiminase 4” (Scientific Reports, 2023)
# Columns and labels:
# [1] = molecular target: T1, human recombinant PAD1 (Homo sapiens, UniProt Q9ULC6); test: PAD1 selectivity biochemical assay measuring ammonia release; conditions: 10 semi-log concentrations, highest concentration tested 30 µM
# T1 construct: purchased Cayman Chemicals 10784
# T1 sequence (Q9ULC6 1-663): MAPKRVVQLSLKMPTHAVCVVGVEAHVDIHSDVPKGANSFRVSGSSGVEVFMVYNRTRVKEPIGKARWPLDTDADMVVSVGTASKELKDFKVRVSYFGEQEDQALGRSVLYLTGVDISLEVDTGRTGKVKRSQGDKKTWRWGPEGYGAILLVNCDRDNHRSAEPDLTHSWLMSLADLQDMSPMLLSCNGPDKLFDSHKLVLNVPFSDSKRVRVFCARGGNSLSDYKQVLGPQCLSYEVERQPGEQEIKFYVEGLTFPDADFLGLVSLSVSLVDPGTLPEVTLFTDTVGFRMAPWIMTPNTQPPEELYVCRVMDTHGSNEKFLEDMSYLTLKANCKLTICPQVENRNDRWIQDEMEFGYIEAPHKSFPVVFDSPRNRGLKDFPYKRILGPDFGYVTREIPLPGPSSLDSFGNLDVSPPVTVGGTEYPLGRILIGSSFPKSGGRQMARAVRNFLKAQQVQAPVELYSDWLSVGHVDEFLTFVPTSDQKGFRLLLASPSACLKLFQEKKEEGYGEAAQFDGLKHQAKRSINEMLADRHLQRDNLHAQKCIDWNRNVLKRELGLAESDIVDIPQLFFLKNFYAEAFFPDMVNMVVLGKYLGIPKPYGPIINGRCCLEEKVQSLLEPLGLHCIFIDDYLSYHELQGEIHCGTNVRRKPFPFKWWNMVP
# [2] = test system: histone H3 citrullination in human neutrophils; test: Citrullination assay in human neutrophils (citrullinated H3 ELISA); assay type: cell-based; conditions: Neutrophil
# Excerpt: All blood samples from healthy donors who participated in this study were obtained after informed consent in accordance with relevant guidelines and regulations given by the ACE Independent ethics committee for Jubilant Biosys Ltd and Office of Clinical Investigations at Boston Children’s Hospital. The ACE Independent ethics committee, Bangalore, approved the use of human whole blood/PBMC/Enriched Subset in Jubilant Biosys Ltd investigations, Drug Controller General of India (DCGI) Reg No. ECR/141/Indt/KA/2013. Briefly, 10 mL K2EDTA vacutainers were used to collect fresh blood from healthy donors (BD vacutainer, Catalog No: BD 367525). A total of 50 ml of blood was taken from a single, healthy human donor. Neutrophils were isolated from human blood using the EasySep Direct Human Neutrophil Isolation Kit, according to the manufacturer's instructions (Stem Cell Technology, Catalog No: 19666). […]
# Citrullinated H3 Enzyme linked immunosorbent Assay (ELISA) was performed as per manufacturer’s instructions (Cayman chemicals, Catalog No: 501620). Neutrophils obtained as mentioned above were counted and cell suspension was prepared in complete RPMI media. […] IC50 values were determined by sigmoidal dose–response curve (variable slope) in Graph Pad Prism 5 software.
# [3] = Microsomal stability, DLM; assay type: in vitro ADME, dog; conditions: 1 µM, liver microsomes 0.5 mg/mL; one range given for HLM/MLM/DLM/RLM
# Protocol: Microsomal stability: Liver microsomes (0.5 mg/mL) from different species were incubated with JBI-589 (1 µM) with or without NADPH (1 mM) at 37 °C for 30 min in potassium phosphate buffer (pH 7.4) and then reaction was stopped with quenching solution (0.5% Formic acid in internal standard (IS) containing ACN). Resulting samples were centrifuged and supernatant was taken for LC–MS/MS analysis. Percent metabolism was calculated as follows: % Metabolized: [1 − (test area ratio/control area ratio)] *100.
# [4] = Plasma protein binding (equilibrium dialysis); assay type: in vitro ADME; conditions: pH 7.4, plasma across species, read-out: PPB (% unbound)
# Protocol: Plasma protein binding: 10 µM of JBI-589 was mixed with plasma from different species (in sodium phosphate buffer, pH 7.4) was added to the plasma side of the 96-well micro-equilibrium dialysis device and sodium phosphate buffer (pH 7.4) was added to the other half of the device. The device was incubated at 37 ± 1 °C for 14 h with constant shaking. After the incubation time, plasma and buffer were collected from either side, quenched (0.5% formic acid in internal standard (IS) containing ACN), centrifuged and supernatant was used for LC–MS/MS analysis. Percent of unbound compound was calculated as follows: Percent unbound: [peak area ratio in buffer side/dilution factor]/peak area ratio in plasma side × 100; Peak area ratio: compound peak area/internal standard peak area.
# [5] = molecular target: T2, CYP2C9 (Homo sapiens, UniProt P11712); test: CYP inhibition in human liver microsome, CYP2C9; assay type: in vitro ADME
# T2 construct: from tissue; host or cells: human liver microsomes
# T2 sequence (P11712 whole entry): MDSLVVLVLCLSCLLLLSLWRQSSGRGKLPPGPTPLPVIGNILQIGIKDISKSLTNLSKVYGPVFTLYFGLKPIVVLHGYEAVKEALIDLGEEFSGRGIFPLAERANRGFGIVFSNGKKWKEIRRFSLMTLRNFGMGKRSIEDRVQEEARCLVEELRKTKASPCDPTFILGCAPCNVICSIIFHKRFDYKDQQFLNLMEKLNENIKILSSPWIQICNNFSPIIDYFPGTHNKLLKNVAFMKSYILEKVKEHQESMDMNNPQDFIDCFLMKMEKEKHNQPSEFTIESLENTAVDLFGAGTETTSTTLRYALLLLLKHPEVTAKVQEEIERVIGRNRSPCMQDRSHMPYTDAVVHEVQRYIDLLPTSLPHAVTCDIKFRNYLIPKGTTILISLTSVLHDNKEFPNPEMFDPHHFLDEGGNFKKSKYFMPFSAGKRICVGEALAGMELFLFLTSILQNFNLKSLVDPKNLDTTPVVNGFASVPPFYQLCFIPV
# Protocol: CYP inhibition: Human liver microsome (0.1–0.5 mg/mL for various CYPs) and appropriate probe substrates (2.5–20 µM) were incubated in potassium phosphate buffer with or without JBI-589 for 5 min at 37 °C. The reaction was initiated by addition of NADPH (1 mM), incubated at 37 °C for 10 min and quenched (0.5% Formic acid in internal standard (IS) containing ACN). Samples were then centrifuged and taken for LC–MS/MS analysis. Percent change in metabolite formation for each substrate under above conditions using formula: Percent inhibition = [1 − (test area ratio/control area ratio)] *100.
# [6] = Rat pharmacokinetics; conditions: in vivo, dose not given
# Excerpt: Supplement 41598_2023_30246_MOESM1_ESM.docx, table 3: Supplementary Table S3. In vivo pharmacokinetic parameters of JBI-589 in mouse and rat | column: Dose; t1/2; Cmax; C0; AUC0-t; AUC0-∞; CL; F
compound,measurement,setting,value
"Cc1c(-c2cc3ccccc3n2Cc2ccc(F)cc2)nc2cc(C(=O)N3CCC[C@@H](N)C3)ccn12 [JBI-589, (R)-(3-aminopiperidin-1-yl)(2-(1-(4-fluorobenzyl)-1H-indol-2-yl)-3-methylimidazo[1,2-a]pyridin-7-yl)methanone]",inhibitory activity against PAD1,[1],did not have any inhibitory activity
same,IC50,"[2]; Fig. 1c, human neutrophils, calcium ionophore, x axis μM",0.146 µM
same,EC50,"[2]; human neutrophils induced by 25 µM calcium ionophore, ELISA, read-out: EC50, inhibition of histone H3 citrullination",0.146 µM
same,DLM % metabolized @ 30 min,[3],25-50%
same,"fraction unbound at 14 h, 10 µM",[4],0.05 to 0.1
same,"inhibition at 10 min, 10 µM","[5]; human liver microsomes, 10 µM, human liver microsome, read-out: CYP2C9 inhibition (% inh @10 µM)",< 50%
same,IC50,"[5]; predicted from % inhibition, text says major CYPs tested",> 10 µM
same,AUC(0-inf),"[6]; 2 mg/Kg, IV",1.39 µg·h/mL
same,AUC(0-t),"[6]; 2 mg/Kg, IV",1.32 µg·h/mL
same,C0,"[6]; 2 mg/Kg, IV",0.451 µg/mL
same,Cmax,"[6]; 2 mg/Kg, IV",0.419 µg/mL
same,Vd,"[6]; 2 mg/Kg, IV",13.2 L/kg
same,clearance,"[6]; 2 mg/Kg, IV",1.46 L/h/kg
same,half-life,"[6]; 2 mg/Kg, IV",6.32 h
same,AUC(0-inf),"[6]; 10 mg/Kg, PO",3.58 µg·h/mL
same,AUC(0-t),"[6]; 10 mg/Kg, PO",3.39 µg·h/mL
same,Cmax,"[6]; 10 mg/Kg, PO",0.335 µg/mL
same,bioavailability,"[6]; 10 mg/Kg, PO",51.4%
same,half-life,"[6]; 10 mg/Kg, PO",5.6 h
